Experimental data: patent US20160081985A1, “CENICRIVIROC COMPOSITIONS AND METHODS OF MAKING AND USING THE SAME” (Tobira Therapeutics, Inc., priority 2013, published 2016)

Legend:
[1] = Dissolution time of acid solubilizers in purified water (FBRM); format: physicochemical; conditions: 200 mg acid in 90 mL purified water, 250 rpm
Procedure: The results described in Table 1 were performed by adding 200 mg of the acid to 90 mL purified water using a Mettler Toledo mixing chamber held at the specified temperature with an upward pumping four blade impeller at 250 rpm. The disappearance of particles undergoing dissolution was monitored by focused-beam reflectance measurement (FBRM). Data was analyzed by reviewing individual 2 second measurement trends as well as trends averaged over 10 and 30 seconds.

[2] = Steady-state vs single dose exposure in various other clinical trials; format: in vivo, human; conditions: different formulations
[3] = humans; efavirenz as inducer of CYP3A4; cited from earlier work
[4] = Disintegration behavior of tablets in approximately 250 mL water; format: physicochemical; conditions: single tablet in approximately 250 mL water

Structure (SMILES) | Dissolution time ([1]; 25° C.) | Dissolution time ([1]; 37° C.) | further results
O=C(O)/C=C/C(=O)O [Fumaric, Fumaric Acid] | 312 s | 152 s | –
O=C(O)/C=C\C(=O)O [Maleic, Maleic Acid] | 4 s | <2 s | –
CCCCOCCOc1ccc(-c2ccc3c(c2)/C=C(/C(=O)Nc2ccc([S@@+]([O-])Cc4cncn4CCC)cc2)CCCN3CC(C)C)cc1 [cenicriviroc, (S,E)-8-(4-(2-Butoxyethoxy)phenyl)-1-(2-methylpropyl)-N-(4-(((1-propyl-1H-imidazol-5-yl)methyl)sulfinyl)phenyl)-1,2,3,4-tetrahydrobenzo[b]azocine-5-carboxamide] | – | – | Steady-state exposure level (AUC, day 10) relative to single dose exposure [2]: approximately 1.5 fold; Decrease of cenicriviroc plasma concentration by efavirenz [3]: approximately 2 fold
Nc1ccn([C@@H]2CS[C@H](CO)O2)c(=O)n1 [lamivudine] | – | – | Disintegration Observations (mode) [4]: Rapid; Disintegration time [4]: tion <30 seconds
